Entries after “also recorded” stand apart in the source; their conditions may differ.
Target: T1, endogenous SREBP-2 and SCAP (Cricetulus griseus, UniProt P97260)
T1 construct: Western blot analysis of endogenous SREBP-2 and SCAP; endogenous in cells; host or cells: CHO-K1
T1 sequence (P97260 1-1276): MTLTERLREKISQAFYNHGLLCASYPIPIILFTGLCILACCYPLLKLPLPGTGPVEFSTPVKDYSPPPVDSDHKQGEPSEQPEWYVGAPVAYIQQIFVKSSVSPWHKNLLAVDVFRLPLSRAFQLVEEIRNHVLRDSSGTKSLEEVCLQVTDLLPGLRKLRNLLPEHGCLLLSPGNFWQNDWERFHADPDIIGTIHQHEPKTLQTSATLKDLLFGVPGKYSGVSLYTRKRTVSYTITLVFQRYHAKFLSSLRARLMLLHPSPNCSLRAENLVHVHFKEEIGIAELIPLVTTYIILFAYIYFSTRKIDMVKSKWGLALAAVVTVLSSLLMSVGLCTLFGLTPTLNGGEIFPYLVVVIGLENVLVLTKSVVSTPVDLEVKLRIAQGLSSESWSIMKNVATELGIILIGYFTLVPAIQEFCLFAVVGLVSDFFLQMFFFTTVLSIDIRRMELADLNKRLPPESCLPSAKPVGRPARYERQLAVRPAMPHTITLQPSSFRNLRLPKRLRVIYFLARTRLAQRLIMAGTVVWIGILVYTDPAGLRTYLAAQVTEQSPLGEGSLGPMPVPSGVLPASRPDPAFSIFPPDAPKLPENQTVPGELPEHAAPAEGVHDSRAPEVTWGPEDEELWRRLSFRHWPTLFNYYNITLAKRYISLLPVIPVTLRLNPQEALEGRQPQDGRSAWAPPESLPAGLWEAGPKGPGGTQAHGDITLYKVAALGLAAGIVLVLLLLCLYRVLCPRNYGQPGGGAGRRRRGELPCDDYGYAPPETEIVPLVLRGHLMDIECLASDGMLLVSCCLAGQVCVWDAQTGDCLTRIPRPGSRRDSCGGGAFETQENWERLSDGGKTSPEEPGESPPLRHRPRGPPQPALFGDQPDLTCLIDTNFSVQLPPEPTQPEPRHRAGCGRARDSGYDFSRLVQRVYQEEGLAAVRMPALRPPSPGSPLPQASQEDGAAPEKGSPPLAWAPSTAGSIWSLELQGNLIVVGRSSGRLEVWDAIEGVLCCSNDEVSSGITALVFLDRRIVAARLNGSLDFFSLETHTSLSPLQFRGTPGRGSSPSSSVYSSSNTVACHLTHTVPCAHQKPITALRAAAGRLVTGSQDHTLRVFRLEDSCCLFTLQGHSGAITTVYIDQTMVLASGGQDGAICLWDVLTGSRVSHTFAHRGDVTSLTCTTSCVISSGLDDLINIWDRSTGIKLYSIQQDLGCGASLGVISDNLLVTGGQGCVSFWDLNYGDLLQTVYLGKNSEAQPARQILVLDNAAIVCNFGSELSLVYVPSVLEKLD
T1 sequence (Q60429 1-1139 partner): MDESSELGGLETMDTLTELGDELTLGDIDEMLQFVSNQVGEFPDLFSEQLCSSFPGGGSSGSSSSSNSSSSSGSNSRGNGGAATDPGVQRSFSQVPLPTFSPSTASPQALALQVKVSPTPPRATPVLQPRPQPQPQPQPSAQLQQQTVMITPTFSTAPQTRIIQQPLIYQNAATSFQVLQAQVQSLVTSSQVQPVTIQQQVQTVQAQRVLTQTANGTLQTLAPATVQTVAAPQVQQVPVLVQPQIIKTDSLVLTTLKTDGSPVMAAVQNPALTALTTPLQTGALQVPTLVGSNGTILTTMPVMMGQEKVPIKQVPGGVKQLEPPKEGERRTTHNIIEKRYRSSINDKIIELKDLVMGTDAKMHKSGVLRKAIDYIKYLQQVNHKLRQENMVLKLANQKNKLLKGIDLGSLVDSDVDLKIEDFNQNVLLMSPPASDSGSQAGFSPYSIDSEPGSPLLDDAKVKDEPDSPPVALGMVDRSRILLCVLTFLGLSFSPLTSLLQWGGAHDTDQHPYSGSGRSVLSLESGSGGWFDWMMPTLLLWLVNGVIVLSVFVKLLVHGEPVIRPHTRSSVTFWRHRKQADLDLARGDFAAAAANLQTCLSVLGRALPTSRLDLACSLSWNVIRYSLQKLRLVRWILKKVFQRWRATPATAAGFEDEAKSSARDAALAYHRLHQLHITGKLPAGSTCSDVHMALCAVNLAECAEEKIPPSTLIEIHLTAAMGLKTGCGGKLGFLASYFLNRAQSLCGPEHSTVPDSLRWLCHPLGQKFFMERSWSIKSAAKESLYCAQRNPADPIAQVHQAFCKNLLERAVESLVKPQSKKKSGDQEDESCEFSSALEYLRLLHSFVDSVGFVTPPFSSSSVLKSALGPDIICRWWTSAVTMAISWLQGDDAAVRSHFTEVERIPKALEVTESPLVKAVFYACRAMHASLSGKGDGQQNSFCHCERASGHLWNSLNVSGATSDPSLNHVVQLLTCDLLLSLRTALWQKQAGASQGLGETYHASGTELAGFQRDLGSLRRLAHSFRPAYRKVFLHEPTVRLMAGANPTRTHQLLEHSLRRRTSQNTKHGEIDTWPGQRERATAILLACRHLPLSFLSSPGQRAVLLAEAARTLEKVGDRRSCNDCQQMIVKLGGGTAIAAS
Assay: Western blot analysis of endogenous SREBP-2 and SCAP in CHO-K1 cells
Assay type: cell-based
Conditions: FIG. 6B; for protein levels of precursor and mature forms of SREBP-2 and of SCAP: CHO-K1 cells, lipid-free medium, 24 h
Procedure: 25(OH)D3 and KK-052 decreased the protein levels of both precursor and mature forms of SREBP-2, as well as SCAP. (CHO-K1 cells were treated with the compound in a lipid-free medium for 24 h); (C) Western blot analysis of SCAP: CHO-K1 cells expressing FLAG-tagged SCAP were treated with the compound in a lipid-free medium for 24 h and immunoblots were performed with an anti-FLAG antibody.
The effects of KK-052 (50) on SREBP and SCAP by gene reporter assay and Western blot analysis were verified. […] Overall, the results were consistent with the effects of KK-052 in vivo.

Q: For C[C@H](CCC(F)(F)C(C)(C)O)[C@H]1CC[C@H]2/C(=C/Cn3nnnc3-c3ccccc3)CCC[C@]12C [Compound 50, (R)-3,3-Difluoro-2-methyl-6-{(1R,3aS,7aR,E)-7a-methyl-4-[2-(5-phenyl-1H-tetrazol-1-yl)ethylidene]octahydro-1H-inden-1-yl}heptan-2-ol], which “effect on endogenous SREBP and SCAP levels at 1 μM” value (1 μM concentration) is on record?
A: The value was “less evident”.

Q: And the “protein levels of precursor and mature forms of SREBP-2 and of SCAP” value (listed as KK-052)?
A: The value was “decreased; also recorded: decreasing the level”.

Q: Which “protein levels of precursor and mature forms of SREBP-2 and of SCAP” value does the source give for C=C1CC[C@H](O)C/C1=C/C=C1\CCC[C@]2(C)[C@@H]([C@H](C)CCCC(C)(C)O)CC[C@@H]12 [25(OH)D3, 25-hydroxyvitamin D3, reference compound] here?
A: The value was “decreased”.
